What was measured:
Experiment in all cases: relative viability (nuclei count vs DMSO), 5 days (fraction); higher = more cells survive
[1] = compound: Cn1cc(-c2cnn3c(N)c(Br)c([C@@H]4CCCNC4)nc23)cn1 + Cc1nc(NC(=O)N2CCC[C@H]2C(N)=O)sc1-c1ccnc(C(C)(C)C(F)(F)F)c1 [Alpelisib] (partner 2 µM)
Summary of the method: (§1)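 Lung cancer cell lines in 1536-well plates were dosed by pin tool the day after seeding, either with one drug alone or with a fixed anchor-drug dose plus five library-drug doses (not always all listed) in √10 steps. After 5 days, cells were fixed and their nuclei stained in one step (final 0.05% Triton X-100, 1% formaldehyde, 1 ug/ml Hoechst), then counted on 4× images. Relative viability is the nuclei count in treated wells divided by that in vehicle wells. Values are medians of duplicate plates.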

[2] = compound: Cn1cc(-c2cnn3c(N)c(Br)c([C@@H]4CCCNC4)nc23)cn1 + Cc1nc(Nc2ncc(C(=O)Nc3c(C)cccc3Cl)s2)cc(N2CCN(CCO)CC2)n1 [Dasatinib] (partner 0.075 µM)
Summary of the method: as §1

[3] = compound: Cn1cc(-c2cnn3c(N)c(Br)c([C@@H]4CCCNC4)nc23)cn1 + CC(=O)c1c(C)c2cnc(Nc3ccc(N4CCNCC4)cn3)nc2n(C2CCCC2)c1=O [Palbociclib] (partner 0.5 µM)
Summary of the method: as §1

[4] = compound: Cn1cc(-c2cnn3c(N)c(Br)c([C@@H]4CCCNC4)nc23)cn1 + CC(C)C[C@H](NC(=O)[C@H](Cc1ccccc1)NC(=O)c1cnccn1)B(O)O [Bortezomib] (partner 0.002 µM)
Summary of the method: as §1

Row | Cell Line | relative viability ([1]; first compound 0.05 µM) | relative viability ([1]; first compound 0.1581 µM) | relative viability ([1]; first compound 0.5 µM) | relative viability ([1]; first compound 1.581 µM) | relative viability ([1]; first compound 5 µM) | relative viability ([2]; first compound 0.05 µM) | relative viability ([2]; first compound 0.1581 µM) | relative viability ([2]; first compound 0.5 µM) | relative viability ([2]; first compound 1.581 µM) | relative viability ([2]; first compound 5 µM) | relative viability ([3]; first compound 0.05 µM) | relative viability ([3]; first compound 0.1581 µM) | relative viability ([3]; first compound 0.5 µM) | relative viability ([3]; first compound 1.581 µM) | relative viability ([3]; first compound 5 µM) | relative viability ([4]; first compound 0.05 µM) | relative viability ([4]; first compound 0.1581 µM) | relative viability ([4]; first compound 0.5 µM) | relative viability ([4]; first compound 1.581 µM) | relative viability ([4]; first compound 5 µM)
1 | LU99A | 0.534 | 0.541 | 0.492 | 0.491 | 0.388 | 0.397 | 0.51 | 0.485 | 0.405 | 0.244 | 0.421 | 0.458 | 0.386 | 0.392 | 0.339 | 1.16 | 1.25 | 1.05 | 1.14 | 0.679
2 | NCI-H1355 | 0.797 | 0.875 | 0.819 | 0.849 | 0.825 | 0.705 | 0.705 | 0.596 | 0.652 | 0.566 | 0.371 | 0.425 | 0.397 | 0.385 | 0.382 | 1.23 | 1.33 | 1.17 | 1.15 | 1.24
3 | NCI-H520 | 0.86 | 0.887 | 0.763 | 0.64 | 0.785 | 0.178 | 0.258 | 0.191 | 0.176 | 0.165 | 0.266 | 0.232 | 0.231 | 0.199 | 0.172 | 0.702 | 0.609 | 0.385 | 0.471 | 0.344
4 | NCI-H661 | 0.596 | 0.611 | 0.521 | 0.667 | 0.297 | 0.898 | 0.962 | 0.891 | 0.82 | 0.432 | 0.395 | 0.371 | 0.387 | 0.389 | 0.344 | 0.805 | 0.781 | 0.698 | 0.731 | 0.587
5 | NCI-H650 | 1.16 | 1.22 | 1.23 | 1.05 | 0.858 | 0.439 | 0.409 | 0.451 | 0.474 | 0.422 | 0.372 | 0.357 | 0.36 | 0.313 | 0.324 | 0.717 | 0.748 | 0.69 | 0.773 | 0.603
6 | NCI-H647 | 1.16 | 1 | 1.05 | 0.331 | 0.444 | 0.212 | 0.326 | 0.143 | 0.12 | 0.123 | 0.378 | 0.47 | 0.423 | 0.228 | 0.107 | 1.15 | 1.05 | 0.648 | 0.696 | 0.38
7 | 201T | 1.04 | 1.02 | 1.05 | 0.98 | 0.909 | 0.614 | 0.568 | 0.651 | 0.587 | 0.439 | 0.362 | 0.373 | 0.34 | 0.322 | 0.363 | 1.04 | 1.09 | 1.1 | 1.07 | 1.17
8 | NCI-H838 | 1.08 | 1.16 | 0.94 | 0.784 | 1.02 | 0.196 | 0.298 | 0.277 | 0.284 | 0.254 | 0.238 | 0.228 | 0.211 | 0.178 | 0.224 | 0.918 | 0.845 | 0.83 | 0.701 | 0.551
9 | LK-2 | 1.07 | 0.945 | 1.11 | 0.618 | 0.595 | 0.228 | 0.296 | 0.26 |  | 0.228 | 0.703 | 0.658 | 0.678 | 0.542 | 0.431 |  |  |  |  | 
10 | NCI-H1944 | 0.808 | 0.797 | 0.825 | 0.717 | 0.626 | 0.23 | 0.206 | 0.197 | 0.192 | 0.179 | 0.31 | 0.343 | 0.282 | 0.261 | 0.261 |  |  |  |  | 
11 | NCI-H1650 |  |  |  |  |  |  | 0.296 | 0.257 | 0.256 | 0.178 | 0.248 | 0.366 | 0.281 | 0.244 | 0.254 | 0.185 | 0.171 | 0.215 | 0.189 | 0.196
12 | NCI-H596 | 0.939 | 0.498 | 0.47 | 0.494 | 0.478 | 0.668 | 0.549 | 0.552 | 0.545 | 0.589 |  |  |  |  |  | 1.06 | 0.964 | 0.9 | 0.804 | 1.02
13 | SK-MES-1 | 1.01 | 1.03 | 0.94 | 0.763 | 0.592 | 0.359 | 0.308 | 0.236 | 0.231 | 0.118 | 0.315 | 0.327 | 0.308 | 0.273 | 0.238 |  |  |  |  | 
14 | NCI-H2170 | 0.865 | 0.764 | 0.654 | 0.705 | 0.88 | 0.713 | 0.541 | 0.524 | 0.551 | 0.446 | 0.402 | 0.407 | 0.366 | 0.345 | 0.397 |  |  |  |  | 
15 | NCI-H358 | 0.957 | 0.766 | 0.852 | 0.518 | 0.78 | 0.131 | 0.155 | 0.156 | 0.167 | 0.148 | 0.151 | 0.134 | 0.128 | 0.104 | 0.111 |  |  |  |  | 
16 | NCI-H1563 | 0.827 | 0.835 | 0.935 | 0.8 | 0.762 | 0.418 | 0.451 | 0.503 | 0.436 | 0.412 |  |  |  |  |  | 0.887 | 0.74 | 0.742 | 0.805 | 0.706
17 | EBC-1 | 0.902 | 0.913 | 0.704 | 0.774 | 0.753 |  |  |  |  |  |  |  |  |  |  | 0.609 | 0.599 | 0.445 | 0.461 | 0.394
18 | Calu-6 | 0.98 | 0.82 | 0.883 | 0.379 | 0.182 |  |  |  |  |  |  |  |  |  |  | 1.17 | 0.733 | 0.685 | 0.363 | 0.188
19 | HCC-44 | 0.876 | 0.899 | 0.759 | 0.747 | 0.786 |  |  |  |  |  | 0.876 | 0.957 | 0.978 | 0.964 | 0.952 | 0.91 | 1.11 | 0.923 | 0.882 | 0.796
